Test results published in US20220096473A1, “METHOD FOR TREATING AN ACUTE MYELOID LEUKEMIA” (PTC THERAPEUTICS, INC., priority 2019, published 2022).

Legend:
[1] = system: MOLT human acute lymphoblastic leukemia (ALL) tumor cells; assay: ALL mouse model, IV-inoculated MOLT human ALL tumor cells in NOD-SCID mice, survival; type: in vivo; conditions: vehicle 70 days
Protocol: FIG. 6. Shown is a survival curve for an in vivo ALL (Acute Lymphocytic Leukemia) MOLT-4 (CD3 […]) xenograft tumor NSG mouse model after up to 160 days of treatment with Compound 2 vs. vs. mice treated with vehicle, Compound 1, doxorubicin (Dox) and cytarabine (Ara-C). Under various dosing regimens.
Male NOD-SCID mice were inoculated with MOLT human acute lymphoblastic leukemia (ALL) tumor cells from ATCC (1×10^7 cells in 200 μL PBS) by intravenous (IV) injection of 0.2 ml/mouse. Seven days after tumor inoculation, mice were randomized into seven groups of five mice per group, and each group was dosed as follows: (Group 1) orally administered vehicle of 0.5% HPMC and 0.1% Tween 80 daily, (Group 2) orally administered 10 mg/kg Compound 1 twice per week, (Group 3) orally administered 10 mg/kg Compound 2 daily, (Group 4) administered 1 mg/kg doxorubicin by intraperitoneal (IP) injection once per week, (Group 5) administered 0.5 mg/kg doxorubicin by IP injection once per week, (Group 6) administered 50 mg/kg Ara-C twice per week by IP injection, and (Group 7) administered 70 mg/kg Ara-C by IP injection once per week.

[2] = system: MOLM13 human AML tumor cells; assay: AML mouse model, IV-inoculated human AML tumor cells in NOD-SCID mice, survival; type: in vivo
Protocol: FIG. 3. Shown is a survival curve for an in vivo AML NSG mouse model after up to 75 days of treatment with Compound 1 vs. vehicle treated mice (n=5 in vehicle group and n=2 in Compound 1 group).
FIG. 5. Shown is a survival curve for an in vivo AML NSG mouse model after up to 80 days of treatment with a combination of Compound 1 and Compound 2 vs. mice treated with vehicle, Compound 1 alone and Compound 2 alone
The following study was conducted in a mouse model of acute myeloid leukemia (AML) based on intravenous (IV) injection of human […] into male non-obese diabetic (NOD) severe combined immunodeficiency (SID) mice. MOLT-4 cells are CD3 positive. The NOD-SCID mice were obtained from Jackson Laboratory, Bar Harbor Me.
Male NOD-SCID mice were inoculated with MOLM13 human AML tumor cells from ATCC (5×10^6 cells in 200 μL PBS) by intravenous (IV) injection of 0.2 ml/mouse. Three days after tumor inoculation, mice were randomized into four groups of five mice per group, and each group was dosed as follows once each day: (Group 1) orally administered vehicle (0.5% HPMC), (Group 2) orally administered 12.5 mg/kg of Compound 1 in HPMC, (Group 3) orally administered 10 mg/kg of Compound 2 in HPMC, and (Group 4) orally administered a combination of 12.5 mg/kg of Compound 1 and 10 mg/kg of Compound 2 in HPMC for up to 75 days.

[3] = system: leukemia cell growth; conditions: mouse xenograft models; cited from earlier work
[4] = system: p53 mutant mediated AML; conditions: cited from earlier work
[5] = system: P31-Fujioka cell line; assay: P31-Fujioka cell line xenograft survival in immunodeficient NRG-SGM3 mice; type: in vivo, mouse; conditions: oral Compound 1 from ten days after injection, up to 34 days of treatment, n=5 mice per group, P<0.002
Protocol: FIG. 1. Shown is a survival curve for an in vivo P31-Fujioka cell line xenograft tumor […] mouse model after up to 34 days of treatment with Compound 1 vs. vehicle treated animals (n=5 mice per group, *P<0.002).
Immunodeficient mice (NRG-SGM3) were injected with the P31-Fujioka cell line. Ten days after injection, engraftment of P31 cells in mice was confirmed by flow-cytometric assessment of the human CD45 marker (data not shown). One cohort of mice was orally administered Compound 1 and an age and engraftment matched hohort was administered vehicle control.

[6] = system: microtubule polymerization; assay: Mechanistic studies of microtubule polymerization; type: biochemical
From the text: In addition, Compound 1 combines additively or synergistically with standard clinical regimens, yielding potent and durable cancer regression.

[7] = system: CALM-AF10-mediated AML; assay: CALM-AF10-mediated AML leukemogenesis in mouse and human models; conditions: in vitro and in vivo

SMILES: COc1cccc2c1C(=O)c1c(O)c3c(c(O)c1C2=O)C[C@@](O)(C(=O)CO)C[C@@H]3O[C@H]1C[C@H](N)[C@H](O)[C@H](C)O1 [doxorubicin]
- maximum number of days of survival ([1]; Group 4, 1 mg/kg IP once per week): 40 days
- maximum number of days of survival ([1]; Group 5, 0.5 mg/kg IP once per week): 40 days

SMILES: Nc1ccn([C@@H]2O[C@H](CO)[C@@H](O)[C@@H]2O)c(=O)n1 [Ara-C, cytarabine]
- maximum number of days of survival ([1]; Group 6, 50 mg/kg IP twice per week): 65 days
- maximum number of days of survival ([1]; Group 7, 70 mg/kg IP once per week): 70 days

SMILES: COc1ccc([C@H]2c3[nH]c4ccc(Cl)cc4c3CCN2C(=O)Oc2ccc(Cl)cc2)cc1 [Compound 2, 4-chlorophenyl (S)-6-chloro-1-(4-methoxyphenyl)-1,3,4,9-tetrahydro-2H-pyrido[3,4-b]indole-2-carboxylate]
- maximum number of days of survival ([1]; Group 3, 10 mg/kg orally daily): 160 days

SMILES: Cc1nc2ccc(F)cc2n1-c1nc(N)c(F)c(Nc2ccc(C(F)(F)F)cc2)n1 [Compound 1, 5-fluoro-2-(6-fluoro-2-methyl-1H-benzo[d]imidazol-1-yl)-N^4-[4-(trifluoromethyl)phenyl]pyrimidine-4,6-diamine]
- maximum number of days of survival ([1]; Group 2, 10 mg/kg orally twice per week): 65 days
- survival vs mice administered Compound 2 alone ([2]; 12.5 mg/kg Compound 1 orally once each day): survived significantly longer
- survival (prolongation of life) vs vehicle ([2]; 12.5 mg/kg orally once each day in HPMC, up to 75 days): significant prolongation of life
- in vivo anti-leukemia activity [3]: inhibited leukemia cell growth in vivo while sparing normal hematopoietic cells
- MCL-1 expression ([4]; p53 mutant mediated AML): reduced MCL-1 expression
- induction of apoptosis ([4]; patient-derived CD34+CD38low/- stem/progenitor cells): Apoptosis was induced in a p53-independent manner
- latency of disease (survival curve) vs vehicle control [5]: significantly delayed the latency of disease
- microtubule polymerization [6]: inhibit microtubule polymerization
- leukemogenesis [7]: impairs leukemogenesis in vitro and in vivo
